US8785429B2, “Dihydropyrrolonaphthyridinone compounds as inhibitors of JAK” (Takeda Pharmaceutical Company Limited, priority 2009, dated 2014)

How the values were obtained:
JAK3 = target: T1, JAK3 (Homo sapiens, UniProt P52333); assay: Assay for JAK3 Inhibition (phosphorylation of FAM-labeled substrate, Caliper LC-3000); format: biochemical; conditions: −log10(IC50), IC50 is the molar concentration at 50% inhibition; read-out: JAK3 pIC50 (converted)
T1 construct: purchased Invitrogen
T1 sequence (P52333 1-1124): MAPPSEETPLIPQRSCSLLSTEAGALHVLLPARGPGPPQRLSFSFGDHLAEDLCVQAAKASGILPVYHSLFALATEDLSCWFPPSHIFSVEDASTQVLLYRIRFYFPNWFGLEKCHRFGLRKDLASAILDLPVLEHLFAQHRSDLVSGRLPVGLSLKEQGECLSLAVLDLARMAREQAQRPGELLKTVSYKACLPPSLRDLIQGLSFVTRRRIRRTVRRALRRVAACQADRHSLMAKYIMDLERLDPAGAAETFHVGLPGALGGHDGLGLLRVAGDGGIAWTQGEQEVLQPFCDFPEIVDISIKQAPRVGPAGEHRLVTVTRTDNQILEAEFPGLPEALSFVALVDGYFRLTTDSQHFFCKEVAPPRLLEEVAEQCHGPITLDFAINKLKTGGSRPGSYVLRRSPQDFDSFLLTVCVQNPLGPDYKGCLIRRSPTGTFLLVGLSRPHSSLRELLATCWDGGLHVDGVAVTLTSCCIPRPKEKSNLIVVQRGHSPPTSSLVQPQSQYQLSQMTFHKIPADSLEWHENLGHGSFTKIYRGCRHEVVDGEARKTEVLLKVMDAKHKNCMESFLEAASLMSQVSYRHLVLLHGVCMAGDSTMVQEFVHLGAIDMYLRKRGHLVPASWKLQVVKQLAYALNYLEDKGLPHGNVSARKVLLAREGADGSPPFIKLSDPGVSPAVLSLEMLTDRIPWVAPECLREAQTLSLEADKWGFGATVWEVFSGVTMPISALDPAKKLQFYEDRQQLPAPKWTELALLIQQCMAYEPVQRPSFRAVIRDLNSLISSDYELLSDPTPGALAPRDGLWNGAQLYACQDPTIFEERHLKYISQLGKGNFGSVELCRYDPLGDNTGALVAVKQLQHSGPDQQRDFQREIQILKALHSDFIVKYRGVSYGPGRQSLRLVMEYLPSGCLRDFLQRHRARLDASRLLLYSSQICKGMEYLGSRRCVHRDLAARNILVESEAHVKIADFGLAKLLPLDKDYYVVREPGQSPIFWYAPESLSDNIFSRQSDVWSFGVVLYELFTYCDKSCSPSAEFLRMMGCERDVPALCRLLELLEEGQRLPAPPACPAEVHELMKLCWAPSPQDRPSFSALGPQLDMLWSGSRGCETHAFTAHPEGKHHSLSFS
Procedure: (§1) A compound's ability to inhibit JAK activity may be assessed using a variety of methods, including in vitro and in vivo assays. The following in vitro assays measure a test compound's ability to inhibit JAK2- and JAK3-mediated phosphorylation of FAM-labeled JAK-specific substrates.
(§2) Purified JAK2 and JAK3 proteins were purchased from Invitrogen. JAK2 and JAK3 inhibition is determined using a black 384-well-plate format in buffer containing 50 mM HEPES, 10 mM NaCl, 10 mM MgCl2, 0.2 mM EDTA, 0.01% EDA (Brij® 35), 1 mM DTT, 0.1 mg/mL BSA at pH 7.3. Each test compound is prepared in DMSO using 2-fold serial dilutions for 11 data points and is added to the buffer so that each dilution contains 3% DMSO.
(§3) To each well is added 2 μL of 3 μM 5FAM-KKKKEEIYFFFG-NH2 and 15 μM ATP (in buffer), 2 μL of diluted test compound (3% DMSO in medium), and 2 μL of 1.2 nM JAK3 in buffer. The reaction mixture is incubated at room temperature for 60 min and is quenched by adding 50 mM HEPES, 30 mM EDTA, and 0.1% Tx-100 (pH 7.3). To quantify the fluorescent-labeled substrate and product following reaction, the test plate is loaded on a Caliper LC-3000, which measures percent of conversion by microfluidic-based separation.
(§4) Corresponding IC50 values are calculated by non-linear curve fitting of the compound concentrations and percent of inhibition to the standard IC50 equation.

JAK2 = target: T2, JAK2 (Homo sapiens, UniProt O60674); assay: Assay for JAK2 Inhibition (phosphorylation of FAM-labeled substrate, Caliper LC-3000); format: biochemical; conditions: −log10(IC50), IC50 is the molar concentration at 50% inhibition; read-out: JAK2 pIC50 (converted)
T2 construct: purchased Invitrogen
Procedure: as §1, §2
as §3, with “45” for “15”, “0.6” for “1.2”, “JAK2” for “JAK3”, “HEPeX,” for “HEPES,”
as §4

T2 sequence (O60674 whole entry): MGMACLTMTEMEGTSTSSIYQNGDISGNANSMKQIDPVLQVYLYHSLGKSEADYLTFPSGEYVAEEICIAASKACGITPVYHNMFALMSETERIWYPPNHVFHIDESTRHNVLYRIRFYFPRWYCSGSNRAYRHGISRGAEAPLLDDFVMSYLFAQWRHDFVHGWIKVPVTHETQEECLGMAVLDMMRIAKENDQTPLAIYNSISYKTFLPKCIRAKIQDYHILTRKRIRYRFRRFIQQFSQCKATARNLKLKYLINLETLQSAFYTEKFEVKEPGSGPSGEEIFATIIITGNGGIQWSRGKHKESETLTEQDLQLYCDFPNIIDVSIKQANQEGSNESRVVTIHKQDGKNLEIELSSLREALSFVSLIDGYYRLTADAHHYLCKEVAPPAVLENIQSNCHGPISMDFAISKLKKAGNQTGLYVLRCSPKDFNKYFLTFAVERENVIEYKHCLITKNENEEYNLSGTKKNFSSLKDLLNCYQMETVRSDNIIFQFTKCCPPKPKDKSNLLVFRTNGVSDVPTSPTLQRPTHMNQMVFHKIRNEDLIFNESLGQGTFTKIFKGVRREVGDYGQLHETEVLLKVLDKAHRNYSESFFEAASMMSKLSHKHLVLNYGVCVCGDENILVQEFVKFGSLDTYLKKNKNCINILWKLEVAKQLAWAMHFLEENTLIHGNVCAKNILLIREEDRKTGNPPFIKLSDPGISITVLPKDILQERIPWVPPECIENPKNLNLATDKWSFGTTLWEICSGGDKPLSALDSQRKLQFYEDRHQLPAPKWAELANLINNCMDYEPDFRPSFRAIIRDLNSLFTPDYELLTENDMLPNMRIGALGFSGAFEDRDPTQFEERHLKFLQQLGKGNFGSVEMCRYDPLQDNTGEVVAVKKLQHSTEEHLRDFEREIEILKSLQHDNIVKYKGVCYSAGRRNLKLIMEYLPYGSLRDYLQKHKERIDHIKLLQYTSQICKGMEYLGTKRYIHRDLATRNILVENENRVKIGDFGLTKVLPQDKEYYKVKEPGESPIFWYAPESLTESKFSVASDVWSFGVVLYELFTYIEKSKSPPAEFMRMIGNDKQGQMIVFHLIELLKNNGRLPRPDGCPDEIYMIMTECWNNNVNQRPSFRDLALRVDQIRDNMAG

Row | SMILES | IC50 (JAK3) [µM] | IC50 (JAK2) [µM]
1 | CC(C)[C@H](C(=O)NCC#N)N1Cc2c(Cl)cnc3[nH]cc(c23)C1=O [Example 32, (R)-2-(6-chloro-3-oxopyrrolo[4,3,2-de][2,6]naphthyridin-4(1H,3H,5H)-yl)-N-(cyanomethyl)-3-methylbutanamide] | 0.01 | 0.2
2 | CC(C)[C@H](C(=O)N1CCC(C#N)C1)N1Cc2c(Cl)cnc3[nH]cc(c23)C1=O (stereo partly drawn) [Example 33, 1-((R)-2-(6-chloro-3-oxopyrrolo[4,3,2-de][2,6]naphthyridin-4(1H,3H,5H)-yl)-3-methylbutanoyl)pyrrolidine-3-carbonitrile] | 0.0398 | 0.794
3 | CC(C)[C@H](C(=O)N1CCC(C#N)CC1)N1Cc2c(Cl)cnc3[nH]cc(c23)C1=O [Example 34, (R)-1-(2-(6-chloro-3-oxopyrrolo[4,3,2-de][2,6]naphthyridin-4(1H,3H,5H)-yl)-3-methylbutanoyl)piperidine-4-carbonitrile] | 0.0158 | 0.251
4 | CC(C)[C@H](C(=O)Nc1ccc(C#N)cc1)N1Cc2c(Cl)cnc3[nH]cc(c23)C1=O [Example 35, (R)-2-(6-chloro-3-oxopyrrolo[4,3,2-de][2,6]naphthyridin-4(1H,3H,5H)-yl)-N-(4-cyanophenyl)-3-methylbutanamide] | 0.316 | 2.51
5 | CC(C)[C@H](C(=O)Nc1cccc(C#N)c1)N1Cc2c(Cl)cnc3[nH]cc(c23)C1=O [Example 36, (R)-2-(6-chloro-3-oxopyrrolo[4,3,2-de][2,6]naphthyridin-4(1H,3H,5H)-yl)-N-(3-cyanophenyl)-3-methylbutanamide] | 0.126 | 1
6 | CC[C@@H](CC#N)NC(=O)[C@@H](C(C)C)N1Cc2c(Cl)cnc3[nH]cc(c23)C1=O [Example 37, (R)-2-(6-chloro-3-oxopyrrolo[4,3,2-de][2,6]naphthyridin-4(1H,3H,5H)-yl)-N—((S)-1-cyanobutan-2-yl)-3-methylbutanamide] | 0.0631 | 1.58
7 | CC[C@H](CC#N)NC(=O)[C@@H](C(C)C)N1Cc2c(Cl)cnc3[nH]cc(c23)C1=O [Example 38, (R)-2-(6-chloro-3-oxopyrrolo[4,3,2-de][2,6]naphthyridin-4(1H,3H,5H)-yl)-N—((R)-1-cyanobutan-2-yl)-3-methylbutanamide] | 0.0316 | 1
8 | CC(C)[C@H](C(=O)N1CC(C#N)C1)N1Cc2c(Cl)cnc3[nH]cc(c23)C1=O [Example 39, (R)-1-(2-(6-chloro-3-oxopyrrolo[4,3,2-de][2,6]naphthyridin-4(1H,3H,5H)-yl)-3-methylbutanoyl)azetidine-3-carbonitrile] | 0.002 | 0.0316
9 | CC(C)(C)[C@H](C(=O)NCCC#N)N1Cc2c(Cl)cnc3[nH]cc(c23)C1=O [Example 40, (R)-2-(6-chloro-3-oxopyrrolo[4,3,2-de][2,6]naphthyridin-4(1H,3H,5H)-yl)-N-(2-cyanoethyl)-3,3-dimethylbutanamide] | 0.0501 | 1.26
10 | CC(C)(C)[C@H](C(=O)N1CC(C#N)C1)N1Cc2c(Cl)cnc3[nH]cc(c23)C1=O [Example 41, (R)-1-(2-(6-chloro-3-oxopyrrolo[4,3,2-de][2,6]naphthyridin-4(1H,3H,5H)-yl)-3,3-dimethylbutanoyl)azetidine-3-carbonitrile] | 0.00398 | 0.0501
11 | CC(C)[C@H](C(=O)N1CC(C#N)C1)N1Cc2c(F)cnc3[nH]cc(c23)C1=O [Example 42, (R)-1-(2-(6-fluoro-3-oxopyrrolo[4,3,2-de][2,6]naphthyridin-4(1H,3H,5H)-yl)-3-methylbutanoyl)azetidine-3-carbonitrile] | 0.00631 | 0.126
12 | CC(C)[C@H](C(=O)N(C)CCC#N)N1Cc2c(F)cnc3[nH]cc(c23)C1=O [Example 43] | 0.794 | 12.6
13 | CC(C)[C@H](C(=O)NC1CCOC1)N1Cc2c(F)cnc3[nH]cc(c23)C1=O (stereo partly drawn) [Example 44, (2R)-2-(6-fluoro-3-oxopyrrolo[4,3,2-de][2,6]naphthyridin-4(1H,3H,5H)-yl)-3-methyl-N-(tetrahydrofuran-3-yl)butanamide] | 0.126 | 1.58
14 | CC(C)[C@H](C(=O)NC1CCS(=O)(=O)C1)N1Cc2c(F)cnc3[nH]cc(c23)C1=O (stereo partly drawn) [Example 45, (R)-2-(6-fluoro-3-oxopyrrolo[4,3,2-de][2,6]naphthyridin-4(1H,3H,5H)-yl)-3-methyl-N-(1,1-dioxidotetrahydrothien-3-yl)butanamide] | 0.0631 | 2
15 | CC(C)[C@H](C(=O)NCCS(C)(=O)=O)N1Cc2c(F)cnc3[nH]cc(c23)C1=O [Example 46, (R)-2-(6-fluoro-3-oxopyrrolo[4,3,2-de][2,6]naphthyridin-4(1H,3H,5H)-yl)-3-methyl-N-(2-(methylsulfonyl)ethyl)butanamide] | 0.251 | 1.58
16 | CC(C)[C@H](C(=O)NC1CCS(=O)(=O)CC1)N1Cc2c(F)cnc3[nH]cc(c23)C1=O [Example 47, (R)—N-(1,1-dioxidotetrahydro-2H-thiopyran-4-yl)-2-(6-fluoro-3-oxopyrrolo[4,3,2-de][2,6]naphthyridin-4(1H,3H,5H)-yl)-3-methylbutanamide] | 0.126 | 2.51
17 | CC(C)[C@H](C(=O)N1CCS(=O)(=O)CC1)N1Cc2c(F)cnc3[nH]cc(c23)C1=O [Example 48, 4-{(1R)-1-[(1,1-dioxidothiomorpholin-4-yl)carbonyl]-2-methylpropyl}-6-fluoro-4,5-dihydropyrrolo[4,3,2-de][2,6]naphthyridin-3(1H)-one] | 0.251 | 5.01
18 | CC(C)[C@H](C(=O)NOCC1CC1)N1Cc2c(F)cnc3[nH]cc(c23)C1=O [Example 49, (R)—N-(cyclopropylmethoxy)-2-(6-fluoro-3-oxopyrrolo[4,3,2-de][2,6]naphthyridin-4(1H,3H,5H)-yl)-3-methylbutanamide] | 0.1 | 2
19 | CC(C)[C@H](C(=O)NC1CCC(F)(F)C1)N1Cc2c(F)cnc3[nH]cc(c23)C1=O (stereo partly drawn) [Example 50, (2R)—N-(3,3-difluorocyclopentyl)-2-(6-fluoro-3-oxopyrrolo[4,3,2-de][2,6]naphthyridin-4(1H,3H,5H)-yl)-3-methylbutanamide] | 0.0794 | 1.58
20 | CC(C)[C@H](C(=O)N1CC(C#N)(CF)C1)N1Cc2ccnc3[nH]cc(c23)C1=O [Example 51, (R)-3-(fluoromethyl)-1-(3-methyl-2-(3-oxopyrrolo[4,3,2-de][2,6]naphthyridin-4(1H,3H,5H)-yl)butanoyl)azetidine-3-carbonitrile] | 0.00501 | 0.158
21 | CC(C)[C@H](C(=O)N1CC(C)(C#N)C1)N1Cc2c(F)cnc3[nH]cc(c23)C1=O [Example 52, (R)-1-(2-(6-fluoro-3-oxopyrrolo[4,3,2-de][2,6]naphthyridin-4(1H,3H,5H)-yl)-3-methylbutanoyl)-3-methylazetidine-3-carbonitrile] | 0.01 | 0.2
